From patent publication US10265333B2, “Lipid nanomaterial containing lysophosphatidylcholine or derivative thereof and method for preparing same” (priority 2013, dated 2019)

Key:
[1] = tested on: heparinized rat (SD rat) bloods; experiment: Hemolysis in heparinized rat blood (OD 570 nm of supernatant); assay type: cell-based
Method: (§1) In order to evaluate the degree of hemolysis and erythrocyte aggregation induced by LPC-containing lipid nanoparticles (LPC-F; 18:0 LPC concentration: 10 mg/ml) prepared in example 1, 200 μl of saline, distilled water, six different concentration solutions (stock, 2, 4, 8, 16 and 32-fold diluted solutions) of LPC-F, or non-formulated lysophosphatidylcholine (LPC-API) 10 mg/ml concentrated saline solution were directly added into 1 ml of collected heparinized rat (SD rat) bloods, and then, incubated at 37° C. in shaking incubator at 100 rpm for 3 hrs. The prepared LPC-F was fold-diluted with saline to prepare six different concentrations of LPC-F. LPC-API 10 mg/ml concentrated solution was prepared through dispersion in saline, and then fold-diluted with saline to prepare six different concentrations of LPC-API Five independent experiments were repeatedly conducted. If possible, blood taken from same rats was used in each independent experiment. After the incubation in shaking incubator at 100 rpm, the formed erythrocyte aggregation was semi-quantitatively evaluated, and the OD values were calculated for the supernatant in each tube, which was prepared by centrifuging the incubated samples at 12,500 rpm for 10 minutes, and then reading the OD at 570 nm, respectively. Hemolysis was calculated by equation 1 below. The hemolytic reaction was considered positive if the hemolytic percentage was greater than 5%. Hemolytic percentage (%)=(OD sample−OD negative/(OD positive−OD negative)×100 [Equation 1]
Where negative=saline, and positive=distilled water
(§2) OD values and semiquantative erythrocyte aggregation scores were expressed by mean±standard deviation of five independent experiments. Multiple comparison tests for different dose groups were conducted. Variance homogeneity was examined using the Levene test (Levene A, Clin Otalary, 1981; 6:145-51). […] Statistical analyses were conducted using SPSS (Release 14.0 K, SPSS Inc., USA; Ludbrook, Clin Exp Pharmacol Physiol, 1997; 24:294-6). A p-value p<0.05 was considered statistically significant.

[2] = tested on: hair-clipped dorsal back skins of mice; experiment: Local irritation test in mice after single subcutaneous administration; assay type: in vivo; conditions: for Clinical signs: Normal appearance (% of mice) / Clinical signs: Normal appearance (mice/group) / Clinical signs: Skin ulcerative lesions (mice/group): male ICR mice, 14 days
Method: In order to evaluate the local irritation of the LPC-containing lipid nanoparticle formulation (LPC-F; 18:0 LPC concentration: 10 mg/ml) prepared in example 1, 20, 10, and 5 ml/kg (18:0 LPC 200, 100, and 50 mg/kg) were single subcutaneously administered to hair-clipped dorsal back skins of mice. Based on the “Testing Guidelines for Safety Evaluation of Drugs” [2009] in Notification No. 2009-116 issued by the Korea Food and Drug Administration, the changes in mortality, body weight, clinical signs, gross and histopathological findings around injection sites during 14 days were compared between the LPC-containing lipid nanoparticle formulations and equal concentrations of lysophosphatidylcholine saline suspension (LPC-API) 10 mg/ml treated group. In the present test, saline was used as negative control, and the highest dosage 200 mg/kg was set based on the maximum permissible dosage 20 ml/kg in rodents (Flecknell, 1996; KFDA Guidelines, Notification 2009-116, 2009; OECD Guidelines, #423, 2001). The dosages were set to 10 and 5 ml/kg in middle and lowest dosage groups, respectively.
Animal male ICR mice were 6-wk old upon receipt (body weight ranged in 30-32 g), and were 10-wk old after acclimatization for 28 days (body weight ranged in 36.4-49.0 g). The animals were distributed into the following groups for the test.
as §2, with “All data” for “OD values and semiquantative erythrocyte aggregation scores”, “as” for “by”, “deviation (SD)” for “deviation”, “mice.” for “independent experiments.”, “dosage” for “dose”, “<0.05” for “p<0.05”

[3] = tested on: heparinized rat (SD rat) bloods; experiment: Erythrocyte aggregation in heparinized rat blood (semiquantitative score); assay type: cell-based; conditions: all six different concentrations (stock to 32-fold diluted)
Method: as §1, with “If possible, blood taken from same rats was used in each independent experiment.” left out, “The hemolytic reaction was considered positive if the hemolytic percentage was greater than 5%. Hemolytic percentage (%)=(OD sample−OD negative/(OD positive−OD negative)×100 [Equation 1]” left out
Erythrocyte aggregation was evaluated based on semiquantative scores as follows: […]

[4] = single s.c. 5 ml/kg (LPC 50 mg/kg)
[5] = single s.c. 10 ml/kg (LPC 100 mg/kg)
[6] = single s.c. 20 ml/kg (LPC 200 mg/kg)

lysophosphatidylcholine [LPC-API]
Hemolytic percentage (%) ([1]; 2-fold diluted solution, 200 μl in 1 ml rat blood, 37° C., 3 hrs): 148.65±15.01%
Hemolytic percentage (%) ([1]; 4-fold diluted solution, 200 μl in 1 ml rat blood, 37° C., 3 hrs): 129.70±7.23%
Hemolytic percentage (%) ([1]; 8-fold diluted solution, 200 μl in 1 ml rat blood, 37° C., 3 hrs): 117.67±5.97%
Hemolytic percentage (%) ([1]; 16-fold diluted solution, 200 μl in 1 ml rat blood, 37° C., 3 hrs): 78.74±3.30%
Hemolytic percentage (%) ([1]; 32-fold diluted solution, 200 μl in 1 ml rat blood, 37° C., 3 hrs): 26.86±6.40%
Hemolytic percentage (%) ([1]; stock (LPC 10 mg/ml), 200 μl in 1 ml rat blood, 37° C., 3 hrs): 157.68±10.44%
Hemolytic percentage (%) ([1]; throughout all different concentrations including the lowest 32-fold diluted solutions): greater than 5%
Degree of ulcerative skin lesions around injection sites ([2]; 200, 100, 50 mg/kg treated groups, from 48 hrs after end of treatment): slight [1+] or moderate [2+]
Histopathology: skin ulcerative lesions (% of mice) ([2]; single s.c. 50 mg/kg): 60%
Necropsy: skin ulcerative lesions around injection sites (% of mice) ([2]; single s.c. 50 mg/kg): 60%
Histopathology: skin ulcerative lesions (% of mice) ([2]; single s.c. 100 mg/kg): 60%
Necropsy: skin ulcerative lesions around injection sites (% of mice) ([2]; single s.c. 100 mg/kg): 60%
Histopathology: skin ulcerative lesions (% of mice) ([2]; single s.c. 200 mg/kg): 100%
Necropsy: skin ulcerative lesions around injection sites (% of mice) ([2]; single s.c. 200 mg/kg): 100%
Histopathology, skins around injection sites: Normal (mice/group) [2, 4]: 2/5
Histopathology: hUL degree 1+ Slight (mice/group) [2, 4]: 3/5
Histopathology: hUL degree 2+ Moderate (mice/group) [2, 4]: 0/5
Histopathology: hUL degree 3+ Severe (mice/group) [2, 4]: 0/5
Histopathology: hUL, histopathological skin ulcerative lesions (mice/group) [2, 4]: 3/5
Necropsy, skins around injection sites: Normal (mice/group) [2, 4]: 2/5
Necropsy: gUL degree 1+ Slight (mice/group) [2, 4]: 3/5
Necropsy: gUL degree 2+ Moderate (mice/group) [2, 4]: 0/5
Necropsy: gUL degree 3+ Severe (mice/group) [2, 4]: 0/5
Necropsy: gUL, gross skin ulcerative lesions (mice/group) [2, 4]: 3/5
Clinical signs: Normal appearance (% of mice) [2, 4]: (40%)
Clinical signs: Normal appearance (mice/group) [2, 4]: 2/5
Clinical signs: Skin ulcerative lesions (mice/group) [2, 4]: 3/5
Histopathology, skins around injection sites: Normal (mice/group) [2, 5]: 2/5
Histopathology: hUL degree 1+ Slight (mice/group) [2, 5]: 3/5
Histopathology: hUL degree 2+ Moderate (mice/group) [2, 5]: 0/5
Histopathology: hUL degree 3+ Severe (mice/group) [2, 5]: 0/5
Histopathology: hUL, histopathological skin ulcerative lesions (mice/group) [2, 5]: 3/5
Necropsy, skins around injection sites: Normal (mice/group) [2, 5]: 2/5
Necropsy: gUL degree 1+ Slight (mice/group) [2, 5]: 3/5
Necropsy: gUL degree 2+ Moderate (mice/group) [2, 5]: 0/5
Necropsy: gUL degree 3+ Severe (mice/group) [2, 5]: 0/5
Necropsy: gUL, gross skin ulcerative lesions (mice/group) [2, 5]: 3/5
Clinical signs: Normal appearance (% of mice) [2, 5]: (40%)
Clinical signs: Normal appearance (mice/group) [2, 5]: 2/5
Clinical signs: Skin ulcerative lesions (mice/group) [2, 5]: 3/5
Histopathology, skins around injection sites: Normal (mice/group) [2, 6]: 0/5
Histopathology: hUL degree 1+ Slight (mice/group) [2, 6]: 3/5
Histopathology: hUL degree 2+ Moderate (mice/group) [2, 6]: 1/5
Histopathology: hUL degree 3+ Severe (mice/group) [2, 6]: 1/5
Histopathology: hUL, histopathological skin ulcerative lesions (mice/group) [2, 6]: 5/5
Necropsy, skins around injection sites: Normal (mice/group) [2, 6]: 0/5
Necropsy: gUL degree 1+ Slight (mice/group) [2, 6]: 3/5
Necropsy: gUL degree 2+ Moderate (mice/group) [2, 6]: 1/5
Necropsy: gUL degree 3+ Severe (mice/group) [2, 6]: 1/5
Necropsy: gUL, gross skin ulcerative lesions (mice/group) [2, 6]: 5/5
Clinical signs: Normal appearance (% of mice) [2, 6]: (0%)
Clinical signs: Normal appearance (mice/group) [2, 6]: 0/5
Clinical signs: Skin ulcerative lesions (mice/group) [2, 6]: 5/5
Skin findings around injection sites (conclusion) ([2]; single subcutaneous treatment, compared with negative vehicle control): severe skin ulcerative lesions
Erythrocyte aggregation scores as compared with non-treated or negative saline controls [3]: significant increases
